# Assays:
# human fibroblasts [1] = assay: Induction of osteoblast from human fibroblast, von Kossa staining (Example C); type: cell-based; conditions: from comparison of combinations of Table 6, FIG. 14
# Procedure: As materials, human fibroblasts were purchased from DS Pharma Biomedical Co., Ltd. The fibroblasts were derived from a skin of a human. The human fibroblasts were seeded on 35 mm dishes at a rate of 5×10^4 cells per a dish, and cultured in DMEM medium (Gibco) to which 10% fetal bovine serum (FBS), 100 U/ml penicillin and 100 μg/ml streptomycin under a condition at 37° C. and 5% CO2 were added to become confluent. Note that the DMEM refers to a Dulbecco's Modified Eagle Medium. The medium in the dish containing the human fibroblasts was exchanged to a RPMI1640 with L-Glutamine and Phenol Red (Wako Pure Chemical Industries, Ltd.) containing an osteoblast-inducer reagent (Takara Bio Inc.), and a low molecular weight compound added according to Table 1. Subsequently, the cells were cultured under the condition at 37° C. and 5% CO2 while exchanging the medium to the medium having the same composition every 3 days. The details of the compounds listed in Table 6 are as aforementioned in the present specification. As a result of culturing human fibroblasts according to the above (2), osteoblast-like cells appeared 7 days after the onset of culturing. Twenty-one days after the onset of culturing, the cells were subjected to von Kossa staining according to a conventional method, to evaluate the presence or absence of calcium deposition. In the figure, the upper pictures show the results of von Kossa staining, and the lower pictures present phase-contrast microscopic images in the same visual fields as of the upper pictures.
# human fibroblasts [2] = assay: Induction of chondrocyte from human fibroblast, Alcian Blue staining (Example D); type: cell-based; conditions: from comparison of combinations of Table 7, FIG. 15
# Procedure: As materials, human fibroblasts were purchased from DS Pharma Biomedical Co., Ltd. The fibroblasts were derived from a skin of a human.
# The human fibroblasts were seeded on 35 mm dishes at a rate of 5×10^4 cells per a dish, and cultured in DMEM medium (Gibco) to which 10% fetal bovine serum (FBS), 100 U/ml penicillin and 100 μg/ml streptomycin under a condition at 37° C. and 5% CO2 were added to become confluent. Note that the DMEM refers to a Dulbecco's Modified Eagle Medium.
# The medium in the dish containing the human fibroblasts was exchanged to a DMEM (Thermo Fisher Scientific, Inc.) containing Insulin-Transferrin-Selenium (Thermo Fisher Scientific, Inc., final concentration: 1%), ascorbic acid-2-phosphate (Wako Pure Chemical Industries, Ltd., final concentration: 50 μg/ml), dexamethasone (Wako Pure Chemical Industries, Ltd., final concentration: 0.1 μM), TGF-β3 (PeproTech, Inc., final concentration: 10 ng/ml), L-proline (Nacalai Tesque, final concentration: 40 μg/ml), Antibiotic-Antimycotic (Thermo Fisher Scientific, Inc., final concentration: 1×), and a low molecular weight compound added according to Table 1. Subsequently, the cells were cultured under the condition at 37° C. and 5% CO2 while exchanging the medium to the medium having the same composition every 3 days. The details of the compounds listed in Table 7 are as aforementioned in the present specification.
# As a result of culturing human fibroblasts according to Example (2), chondrocyte-like cells appeared 7 days after the onset of culturing. Twenty-one days after the onset of culturing, the cells were subjected to Alcian Blue staining according to a conventional method, to evaluate the presence or absence of acid polysaccharides which are a cartilage matrix. In the figure, the upper pictures show the results of Alcian Blue staining, and the lower pictures present phase-contrast microscopic images in the same visual fields as of the upper pictures.
# human fibroblasts [3] = assay: Induction of cardiomyocyte from human fibroblast, cTnT immunostaining (Example F); type: cell-based; conditions: from comparison of combinations of Table 9, FIG. 17
# Procedure: (§1) As materials, human fibroblasts were purchased from DS Pharma Biomedical Co., Ltd. The fibroblasts were derived from a skin of a human. The human fibroblasts were seeded on 35 mm dishes at a rate of 8×10^4 cells per a dish, and cultured in DMEM high glucose medium (Gibco) to which 10% fetal bovine serum (FBS), 100 U/ml penicillin and 100 μg/ml streptomycin under a condition at 37° C. and 5% CO2 were added for 2 days. Note that the DMEM refers to a Dulbecco's Modified Eagle Medium. […] Subsequently, the cells were cultured under the condition at 37° C. and 5% CO2 while exchanging the medium to the medium having the same composition every 3 days. The details of the compounds listed in Table 9 are as aforementioned in the present specification. As a result of culturing the human fibroblasts in accordance with the above (2), shrinking or beating single cells or small cell masses were recognized 8 days after the onset of culturing. Twenty-one or more days after the onset of culturing, a large number of shrinking or beating cardiomyocyte-like masses were observed. Twenty-one days after the onset of culturing, the cells were immobilized with 2% paraformaldehyde, and then immunostained. For staining, an anti-cTnT antibody (ab10214, Abcam PLC; diluted 200-fold) was used. […] The lower pictures show phase-contrast microscopic images in the same visual fields as of the upper pictures.
# human fibroblasts [4] = assay: Induction of brown adipocyte from human fibroblast, UCP1 immunostaining (Example A); type: cell-based; conditions: from comparison of combinations of Table 1, FIG. 1
# Procedure: as §1, with “(Wako Pure Chemical Industries, Ltd.)” for “(Gibco)”, “1” for “9”, “adipocyte-like” for “shrinking or beating single”, “appeared 6” for “or small cell masses were recognized 8”, “culturing.” for “culturing. Twenty-one or more days after the onset of culturing, a large number of shrinking or beating cardiomyocyte-like masses were observed.”, “immunostained.” for “immunostained. For staining, an anti-cTnT antibody (ab10214, Abcam PLC; diluted 200-fold) was used.”
# human fibroblasts [5] = assay: Induction of neural cell from human fibroblast, βIII-tubulin immunostaining (Example E); type: cell-based; conditions: from comparison of combinations of Table 8, FIG. 16
# Procedure: As materials, human fibroblasts were purchased from DS Pharma Biomedical Co., Ltd. The fibroblasts were derived from a skin of a human. The human fibroblasts were seeded on 35 mm dishes at a rate of 8×10^4 cells per a dish, and cultured in DMEM high glucose medium (Wako Pure Chemical Industries, Ltd.) to which 10% fetal bovine serum (FBS), 100 U/ml penicillin and 100 μg/ml streptomycin under a condition at 37° C. and 5% CO2 were added for 2 days. Note that the DMEM refers to a Dulbecco's Modified Eagle Medium. […] Subsequently, the cells were cultured under the condition at 37° C. and 5% CO2 while exchanging the medium to the medium having the same composition every 3 days. The details of the compounds listed in Table 8 are as aforementioned in the present specification. As a result of culturing the human fibroblasts in accordance with the above (2), nerve-like projection structures were recognized 5 days after the onset of culturing. Fourteen days after the onset of culturing, the cells were immobilized with 2% paraformaldehyde, and then immunostained. For staining, an anti-βIII-tubulin antibody (MMS-435P, Covance; diluted 1000-fold) was used. […] The lower pictures show phase-contrast microscopic images in the same visual fields as of the upper pictures.
# [6] = tested on: β adrenergic receptor signaling pathway in compound-induced brown adipocytes; assay: Isoproterenol or forskolin treatment of compound-induced brown adipocytes, mRNA by QRT-PCR; type: cell-based, human; conditions: for expression of Cited1 after treatment / expression of Ckmt1 after treatment: 3 or 6 hours, FIGS. 12 C and D
# Procedure: For the purpose of quantifying gene expression, the whole RNA was extracted from the fibroblasts treated with each compound, using the RNeasy Mini kit (QIAGEN N.V). As a control, a fibroblast was cultured in parallel, in the adipocyte medium. The cells were treated with 0.1 μM, 1 μM and 10 μM isoproterenol or forskolin for 3 hours or 6 hours, and then the whole RNA was extracted from the brown adipocytes induced with the compound and the control cell. The whole RNA was reversely transferred with ReverTraAce® PCR RT Master Mix with gDNA Remover (TOYOBO CO., LTD.), and then subjected to a real-time PCR analysis using Power SYBR Green PCR Master Mix (Thermo Fisher Scientific, Inc.). For one standard, 3 reactions were carried out under the following condition: 40 cycles of reactions at 95° C. for 10 minutes, at 95° C. for 15 seconds, and at 60° C. for 60 seconds. All results were standardized by the amount of the Tbp mRNA.
# Thermogenesis through the Ucp1 is regulated through the sympathetic nervous system and the […] receptor signaling pathway in the brown adipocytes. For the purpose of evaluating the thermogenetic ability in the […] induced with the compounds, the brown adipocytes were treated with isoproterenols (β adrenergic receptor agonist) at 3 different concentrations for 3 hours or 6 hours, and then the Ucp1 mRNA was quantified (FIG. 12 A).
Compound,role of the component for differentiation of the osteoblasts (human fibroblasts [1]),role of the component for differentiation of the chondrocytes (human fibroblasts [2]),role of the component for differentiation into cardiomyocytes (human fibroblasts [3]),also measured
Cc1c[nH]c(-c2cnc(NCCNc3ccc(C#N)cn3)nc2-c2ccc(Cl)cc2Cl)n1 [CHIR99021],important,important,,
c1ccc2c(-c3cnn4cc(-c5ccc(N6CCNCC6)cc5)cnc34)ccnc2c1 [LDN193189],important,important,,
O=C(NOC[C@H](O)CO)c1ccc(F)c(F)c1Nc1ccc(I)cc1F [PD0325901],should not be added,not contained,important,
Cc1cccc(-c2n[nH]cc2-c2ccc3ncccc3n2)n1 [Repsox],,,important,
NC(=O)c1ccc(-c2nc(-c3ccc4c(c3)OCO4)c(-c3ccccn3)[nH]2)cc1 [SB431542],important,important,,role of the component for differentiation into brown adipocytes (human fibroblasts [4]): preferable
"c1cc(-c2cnn3cc(-c4ccc(OCCN5CCCCC5)cc4)cnc23)ccn1 [dorsomorphin, Dorsomorphin]",,not contained,important,role of the component for differentiation into neural cells (human fibroblasts [5]): important; role of the component for differentiation into brown adipocytes (human fibroblasts [4]): preferable
"C=C[C@@]1(C)CC(=O)[C@]2(O)[C@@]3(C)[C@@H](O)CCC(C)(C)[C@@H]3[C@H](O)[C@H](OC(C)=O)[C@@]2(C)O1 [forskolin, Forskolin]",important,important,important,"Ucp1 expression, cells treated for 6 hours versus 3 hours ([6]; 0.1, 1 or 10 μM, FIG. 12 B): more enhanced; expression of Cited1 after treatment [6]: no significant change; expression of Ckmt1 after treatment [6]: no significant change"
"CC(C)NCC(O)c1ccc(O)c(O)c1 (stereo not drawn) [isoproterenol, Isoproterenol]",,,,"Ucp1 mRNA, 3-hour treatment ([6]; 0.1, 1 or 10 μM, versus untreated cells, FIG. 12): slightly increased; expression of Cited1 after treatment [6]: no significant change; expression of Ckmt1 after treatment [6]: no significant change"
